This note sets out measurements from US9457039B2, “2′-disubstituted nucleoside derivatives and methods of use thereof for the treatment of viral diseases” (Merck Sharp & Dohme Corp., priority 2012, dated 2016).

Like-named read-outs stand apart in the source and are kept apart here.

The test system of this assay is HCV replicon (1b) cells. Kind of assay: Cell-based HCV replicon assay (replicon RNA level by real time PCR, Taqman). The method, then: To measure cell-based anti-HCV activity of selected compounds of the present invention, replicon cells were seeded at 5000 cells/well in 96-well collagen I-coated Nunc plates in the presence of the test compound. Various concentrations of test compound, typically in 10 serial 2-fold dilutions, were added to the assay mixture, with the starting concentration ranging from 250 μM to 1 μM. The final concentration of dimethylsulfoxide was 0.5% fetal bovine serum was 5%, in the assay media. Cells were harvested on day 3 by the addition of 1× cell lysis buffer (Ambion cat #8721).
The replicon RNA level was measured using real time PCR (Taqman assay). The amplicon was located in 5B. The PCR primers were: 5B.2F, […] (SEQ ID. NO. 1); 5B.2R, […] (SEQ ID. NO. 2); the probe sequence was FAM-labeled […] (SEQ ID. NO. 3). GAPDH RNA was used as endogenous control and was amplified in the same reaction as NS5B (multiplex PCR) using primers and VIC-labeled probe recommended by the manufacturer (PE Applied Biosystem). The real-time RT-PCR reactions were run on ABI PRISM 7900HT Sequence Detection System using the following program: 48° C. for 30 minutes, 95° C. for 10 minutes, 40 cycles of 95° C. for 15 sec, 60° C. for 1 minute. The ΔCT values (CT5B-CTGAPDH) were plotted against the concentration of test compound and fitted to the sigmoid dose-response model using XLfit4 (MDL). […] Alternatively, to quantitate the absolute amount of replicon RNA, a standard curve was established by including serially diluted T7 transcripts of replicon RNA in the Taqman assay. All Taqman reagents were from […] Applied Biosystems. Such an assay procedure was described in detail in e.g. Malcolm et al., Antimicrobial Agents and Chemotherapy 50: 1013-1020 (2006).

Where [1] appears, read: Hepatitis C virus, 72 h; read-out: 1b EC50.
Where [2] appears, read: HCV replicon cells, harvested on day 3; EC50 = concentration giving ΔCT=1 over baseline; read-out: 1b EC50.
Setting [3] is: read-out: 1b EC50; HCV replicon cells, harvested on day 3; EC50 = concentration giving ΔCT=1 over baseline.

On to `C[C@@]1(N)[C@H](O)[C@@H](CO)O[C@H]1c1cnn2c(N)ncnc12` [Compound 7], for which the EC50 under setting [1] is > 100 µM. For the compound `CC(C)OP1(=O)OC[C@H]2O[C@@H](c3cnn4c(N)ncnc34)[C@](C)(N)[C@@H]2O1` (stereo partly shown) [Compound 21], the EC50 under setting [2] is > 100 µM. `CC(C)OP1(=O)OC[C@H]2O[C@@H](c3cnn4c(N)ncnc34)[C@](C)(N)[C@@H]2O1` (stereo partly shown) [Compound 20]: the EC50 under setting [1] is > 100 µM. Regarding `CC(C)OP1(=O)OC[C@H]2O[C@@H](c3cnc4c(N)ncnn34)[C@](C)(N)[C@@H]2O1` (stereo partly shown) [Compound 18], the EC50 under setting [1] is > 100 µM.

Consider `C[C@@]1(N=[N+]=[N-])[C@H](O)[C@@H](CO)O[C@H]1c1cnc2c(N)ncnn12` [Compound 3], for which the EC50 under setting [1] was > 100 µM. Same read-out and setting: the result for `C[C@@]1(N)[C@H](O)[C@@H](CO)O[C@H]1c1cnc2c(N)ncnn12` [Compound 6] reads > 100 µM. On to `CC(C)OC(=O)[C@H](C)NP(=O)(OC[C@H]1O[C@@H](c2cnn3c(N)ncnc23)[C@](C)(N)[C@@H]1O)Oc1ccccc1` (stereo partly shown) [Compound 15], for which the EC50 under setting [3] came out at 28 µM.

Consider `C[C@@]1(N=[N+]=[N-])[C@H](O)[C@@H](CO)O[C@H]1c1cnn2c(N)ncnc12` [Compound 4], for which the EC50 under setting [1] is > 100 µM.

As to `CC(C)OP1(=O)OC[C@H]2O[C@@H](c3cnc4c(N)ncnn34)[C@](C)(N)[C@@H]2O1` (stereo partly shown) [Compound 19], the EC50 under setting [2] was > 100 µM. As for `CC(C)OC(=O)[C@H](C)NP(=O)(OC[C@H]1O[C@@H](c2cnn3c(N)ncnc23)[C@](C)(N)[C@@H]1O)Oc1ccccc1` (stereo partly shown) [Compound 14], the EC50 under setting [3] was > 100 µM.
